Experimental data taken from publication PMC12183592, “Discovery of Iboga-Derived Ligands for the Sigma‑2 Receptor” (ACS Bio & Med Chem Au, 2025).

Legend:
5-HT1D = 5-HT1D (Homo sapiens, UniProt P28221); test: PDSP secondary radioligand displacement assay, Ki; type: binding; settings: supplement xlsx
Text: (§1) Thirteen analogs, in addition to ibogamine itself (Figure ), were submitted to the PDSP for biological evaluation. Primary radioligand displacement assays were run on 44 neurotransmitter receptors and transporters to give a snapshot of the receptor affinity for each ligand.

H3 = H3 (Homo sapiens, UniProt Q9Y5N1); test: PDSP secondary radioligand displacement assay, Ki; type: binding
H3, sequence (Q9Y5N1 whole entry): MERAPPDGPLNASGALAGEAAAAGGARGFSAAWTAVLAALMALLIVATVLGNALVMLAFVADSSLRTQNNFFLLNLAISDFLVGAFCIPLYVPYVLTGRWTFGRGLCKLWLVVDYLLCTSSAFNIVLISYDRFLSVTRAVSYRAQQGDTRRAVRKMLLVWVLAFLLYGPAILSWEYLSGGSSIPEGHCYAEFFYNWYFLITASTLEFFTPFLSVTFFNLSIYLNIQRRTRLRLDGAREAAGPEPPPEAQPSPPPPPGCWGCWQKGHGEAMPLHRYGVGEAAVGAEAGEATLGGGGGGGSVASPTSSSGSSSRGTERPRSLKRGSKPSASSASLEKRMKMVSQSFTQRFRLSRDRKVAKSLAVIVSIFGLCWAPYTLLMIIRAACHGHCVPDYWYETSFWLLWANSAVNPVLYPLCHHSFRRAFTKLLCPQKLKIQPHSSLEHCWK
Text: as §1

KOR = KOR (Homo sapiens, UniProt P41145); test: PDSP secondary radioligand displacement assay, Ki; type: binding; settings: supplement xlsx
KOR, sequence (P41145 whole entry): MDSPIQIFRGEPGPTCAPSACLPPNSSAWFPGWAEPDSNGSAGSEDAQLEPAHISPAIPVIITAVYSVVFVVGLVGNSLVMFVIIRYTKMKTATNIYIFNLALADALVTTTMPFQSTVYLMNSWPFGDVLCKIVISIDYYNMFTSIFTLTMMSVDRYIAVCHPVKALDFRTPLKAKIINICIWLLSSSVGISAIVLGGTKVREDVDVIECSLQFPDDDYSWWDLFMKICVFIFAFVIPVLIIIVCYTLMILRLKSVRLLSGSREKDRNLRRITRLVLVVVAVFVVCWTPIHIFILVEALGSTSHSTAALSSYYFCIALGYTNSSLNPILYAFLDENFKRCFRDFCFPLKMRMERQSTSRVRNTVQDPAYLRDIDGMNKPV
Text: as §1

SERT = SERT (Homo sapiens, UniProt P31645); test: PDSP secondary radioligand displacement assay, Ki; type: binding; settings: supplement xlsx
SERT, sequence (P31645 whole entry, species assumed): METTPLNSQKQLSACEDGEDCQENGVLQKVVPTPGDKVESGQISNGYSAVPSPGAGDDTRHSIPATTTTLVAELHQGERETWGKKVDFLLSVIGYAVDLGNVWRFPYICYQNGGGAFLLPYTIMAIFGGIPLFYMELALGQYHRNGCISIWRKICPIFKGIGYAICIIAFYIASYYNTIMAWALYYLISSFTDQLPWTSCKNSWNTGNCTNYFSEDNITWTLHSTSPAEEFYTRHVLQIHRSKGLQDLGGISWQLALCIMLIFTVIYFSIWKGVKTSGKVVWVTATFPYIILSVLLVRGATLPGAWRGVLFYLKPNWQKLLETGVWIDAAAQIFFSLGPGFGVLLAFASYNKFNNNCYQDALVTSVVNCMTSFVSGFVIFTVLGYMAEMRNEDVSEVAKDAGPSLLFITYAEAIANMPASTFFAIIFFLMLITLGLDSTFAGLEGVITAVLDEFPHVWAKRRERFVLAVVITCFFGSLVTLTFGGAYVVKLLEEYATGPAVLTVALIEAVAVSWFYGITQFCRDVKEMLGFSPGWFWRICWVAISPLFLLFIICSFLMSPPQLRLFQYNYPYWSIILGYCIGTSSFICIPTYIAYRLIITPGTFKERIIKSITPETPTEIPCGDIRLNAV
Text: as §1

S2R = target: S2R; set-up: method as in earlier work; settings: ref 30 (Bowen et al., 1995); read-out: affinity at S2R (Ki); cited from earlier work
H1 = H1 (Homo sapiens, UniProt P35367); test: PDSP secondary radioligand displacement assay, Ki; type: binding
Text: as §1

M1 = M1 (Homo sapiens, UniProt P11229); test: PDSP secondary radioligand displacement assay, Ki; type: binding
Text: as §1

M2 = target: T1, M2 (Homo sapiens, UniProt P08172); test: PDSP secondary radioligand displacement assay, Ki; type: binding
T1 sequence (P08172 1-466): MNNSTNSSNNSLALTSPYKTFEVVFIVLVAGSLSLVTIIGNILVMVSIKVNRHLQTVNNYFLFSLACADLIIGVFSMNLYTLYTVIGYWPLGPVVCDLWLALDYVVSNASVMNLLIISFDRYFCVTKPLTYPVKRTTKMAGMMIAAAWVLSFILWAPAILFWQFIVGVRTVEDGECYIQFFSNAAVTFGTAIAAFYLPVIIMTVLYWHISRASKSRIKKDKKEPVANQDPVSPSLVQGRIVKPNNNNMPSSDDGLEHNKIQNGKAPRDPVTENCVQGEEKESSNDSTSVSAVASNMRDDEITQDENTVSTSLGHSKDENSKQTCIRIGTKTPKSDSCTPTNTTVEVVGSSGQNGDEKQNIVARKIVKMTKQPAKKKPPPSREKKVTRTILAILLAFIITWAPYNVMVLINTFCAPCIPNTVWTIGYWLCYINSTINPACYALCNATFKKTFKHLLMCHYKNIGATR
Text: as §1

M3 = M3 (Homo sapiens, UniProt P20309); test: PDSP secondary radioligand displacement assay, Ki; type: binding
M3, sequence (P20309 whole entry): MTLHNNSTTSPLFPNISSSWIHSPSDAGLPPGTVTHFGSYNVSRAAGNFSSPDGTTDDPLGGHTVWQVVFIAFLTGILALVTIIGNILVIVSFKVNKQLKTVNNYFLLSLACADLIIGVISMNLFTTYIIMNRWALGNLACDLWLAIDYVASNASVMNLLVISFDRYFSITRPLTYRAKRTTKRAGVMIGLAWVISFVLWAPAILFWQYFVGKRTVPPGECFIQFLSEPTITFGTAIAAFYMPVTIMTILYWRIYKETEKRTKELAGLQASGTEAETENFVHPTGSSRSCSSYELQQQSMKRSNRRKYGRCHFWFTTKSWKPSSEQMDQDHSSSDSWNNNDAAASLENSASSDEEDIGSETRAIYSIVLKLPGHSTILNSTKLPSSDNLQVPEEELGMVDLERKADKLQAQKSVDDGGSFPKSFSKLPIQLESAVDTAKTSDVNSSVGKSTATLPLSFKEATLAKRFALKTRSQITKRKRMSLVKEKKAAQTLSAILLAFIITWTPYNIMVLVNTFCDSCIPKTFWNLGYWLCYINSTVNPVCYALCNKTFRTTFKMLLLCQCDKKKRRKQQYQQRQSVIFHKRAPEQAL
Text: as §1

M4 = M4 (Homo sapiens, UniProt P08173); test: PDSP secondary radioligand displacement assay, Ki; type: binding; settings: supplement xlsx
M4, sequence (P08173 whole entry): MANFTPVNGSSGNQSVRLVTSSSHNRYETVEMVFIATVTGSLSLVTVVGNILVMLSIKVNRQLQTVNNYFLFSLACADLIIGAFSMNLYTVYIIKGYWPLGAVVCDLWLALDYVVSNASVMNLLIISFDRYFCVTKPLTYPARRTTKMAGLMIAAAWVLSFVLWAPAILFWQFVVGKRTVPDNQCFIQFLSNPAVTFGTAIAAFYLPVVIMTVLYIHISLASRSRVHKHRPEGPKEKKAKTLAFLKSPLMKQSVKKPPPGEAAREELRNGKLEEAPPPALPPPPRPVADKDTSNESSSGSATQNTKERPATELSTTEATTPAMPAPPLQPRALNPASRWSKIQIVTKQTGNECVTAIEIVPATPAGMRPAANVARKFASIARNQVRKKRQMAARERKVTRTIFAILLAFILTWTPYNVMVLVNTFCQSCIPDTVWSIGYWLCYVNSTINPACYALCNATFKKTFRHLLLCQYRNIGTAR
Text: as §1

M5 = M5 (Homo sapiens, UniProt P08912); test: PDSP secondary radioligand displacement assay, Ki; type: binding
Text: as §1

MOR = MOR (Homo sapiens, UniProt P35372); test: PDSP secondary radioligand displacement assay, Ki; type: binding; settings: supplement xlsx
MOR, sequence (P35372 whole entry): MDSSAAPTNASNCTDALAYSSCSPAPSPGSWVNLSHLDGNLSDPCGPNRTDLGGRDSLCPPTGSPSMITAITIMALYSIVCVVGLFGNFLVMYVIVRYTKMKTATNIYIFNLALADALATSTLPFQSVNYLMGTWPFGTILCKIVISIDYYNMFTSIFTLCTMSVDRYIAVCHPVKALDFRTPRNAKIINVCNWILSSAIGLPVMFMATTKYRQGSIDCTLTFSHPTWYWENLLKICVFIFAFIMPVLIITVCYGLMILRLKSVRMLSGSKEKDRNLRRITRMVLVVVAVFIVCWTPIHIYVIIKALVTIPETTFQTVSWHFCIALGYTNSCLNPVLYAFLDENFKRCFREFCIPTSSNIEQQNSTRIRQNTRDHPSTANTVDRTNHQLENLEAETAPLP

5-HT2A = 5-HT2A (Homo sapiens, UniProt P28223); test: PDSP secondary radioligand displacement assay, Ki; type: binding; settings: supplement xlsx
Text: as §1

5-HT3 = 5-HT3 (Homo sapiens, UniProt P46098); test: PDSP secondary radioligand displacement assay, Ki; type: binding; settings: supplement xlsx
5-HT3, sequence (P46098 24-478, species assumed): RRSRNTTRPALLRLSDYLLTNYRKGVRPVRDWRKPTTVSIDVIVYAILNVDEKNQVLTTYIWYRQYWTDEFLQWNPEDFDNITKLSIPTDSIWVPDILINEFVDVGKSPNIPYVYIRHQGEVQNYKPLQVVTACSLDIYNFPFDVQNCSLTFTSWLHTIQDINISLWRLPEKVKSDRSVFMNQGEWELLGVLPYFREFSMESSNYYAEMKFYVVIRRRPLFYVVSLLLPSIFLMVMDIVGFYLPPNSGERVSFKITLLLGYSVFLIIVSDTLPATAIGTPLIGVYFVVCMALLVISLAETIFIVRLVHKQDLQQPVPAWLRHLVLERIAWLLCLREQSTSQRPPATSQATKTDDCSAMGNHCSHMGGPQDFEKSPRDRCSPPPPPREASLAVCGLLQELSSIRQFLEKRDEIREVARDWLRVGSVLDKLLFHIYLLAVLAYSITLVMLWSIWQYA
Text: as §1

Alpha2A = target: T2, Alpha2A (Homo sapiens, UniProt P08913); test: PDSP secondary radioligand displacement assay, Ki; type: binding
T2 sequence (P08913 1-465): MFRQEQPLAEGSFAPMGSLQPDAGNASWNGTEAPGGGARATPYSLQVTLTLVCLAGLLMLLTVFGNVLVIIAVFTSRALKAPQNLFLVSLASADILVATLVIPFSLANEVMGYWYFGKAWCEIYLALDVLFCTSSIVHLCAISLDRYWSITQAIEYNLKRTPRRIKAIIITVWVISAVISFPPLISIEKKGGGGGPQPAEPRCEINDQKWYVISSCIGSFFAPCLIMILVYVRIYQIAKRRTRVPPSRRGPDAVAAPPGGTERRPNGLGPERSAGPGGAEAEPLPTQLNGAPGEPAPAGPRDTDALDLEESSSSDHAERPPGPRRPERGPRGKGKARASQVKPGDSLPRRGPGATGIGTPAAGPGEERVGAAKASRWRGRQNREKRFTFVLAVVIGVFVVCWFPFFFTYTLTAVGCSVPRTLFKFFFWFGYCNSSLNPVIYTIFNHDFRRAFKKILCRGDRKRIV
Text: as §1

Alpha2B = target: T3, Alpha2B (Homo sapiens, UniProt P18089); test: PDSP secondary radioligand displacement assay, Ki; type: binding; settings: supplement xlsx
T3 sequence (P18089 1-450): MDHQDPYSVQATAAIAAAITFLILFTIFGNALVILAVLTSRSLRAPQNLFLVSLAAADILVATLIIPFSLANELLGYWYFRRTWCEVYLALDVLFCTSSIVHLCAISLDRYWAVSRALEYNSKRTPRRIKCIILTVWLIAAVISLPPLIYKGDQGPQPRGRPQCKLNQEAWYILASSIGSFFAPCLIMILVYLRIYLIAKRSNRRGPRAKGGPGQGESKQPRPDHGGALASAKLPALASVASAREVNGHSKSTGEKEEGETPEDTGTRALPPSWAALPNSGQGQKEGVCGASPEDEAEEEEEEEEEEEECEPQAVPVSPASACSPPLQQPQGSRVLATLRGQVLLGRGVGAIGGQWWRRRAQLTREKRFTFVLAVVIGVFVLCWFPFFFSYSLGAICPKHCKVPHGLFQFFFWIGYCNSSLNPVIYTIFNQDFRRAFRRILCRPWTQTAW
Text: as §1

Alpha2C = target: T4, Alpha2C (Homo sapiens, UniProt P18825); test: PDSP secondary radioligand displacement assay, Ki; type: binding; settings: Ki values (nM) Alpha2C, supplement xlsx and text
T4 sequence (P18825 1-462): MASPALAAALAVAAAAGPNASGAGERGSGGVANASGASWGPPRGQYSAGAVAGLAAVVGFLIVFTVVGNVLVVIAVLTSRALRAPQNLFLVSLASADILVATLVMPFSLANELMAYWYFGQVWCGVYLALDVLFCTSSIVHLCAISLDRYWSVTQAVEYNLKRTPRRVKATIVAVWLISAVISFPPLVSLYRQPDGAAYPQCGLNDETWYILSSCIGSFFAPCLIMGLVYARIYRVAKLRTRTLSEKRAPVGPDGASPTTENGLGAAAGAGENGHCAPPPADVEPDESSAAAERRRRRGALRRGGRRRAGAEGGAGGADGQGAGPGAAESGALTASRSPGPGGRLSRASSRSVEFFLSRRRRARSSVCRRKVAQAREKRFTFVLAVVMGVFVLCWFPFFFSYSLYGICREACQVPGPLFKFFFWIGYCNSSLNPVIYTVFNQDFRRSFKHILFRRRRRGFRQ
Text: as §1

NET = NET (Homo sapiens, UniProt P23975); test: PDSP secondary radioligand displacement assay, Ki; type: binding
NET, sequence (P23975 whole entry): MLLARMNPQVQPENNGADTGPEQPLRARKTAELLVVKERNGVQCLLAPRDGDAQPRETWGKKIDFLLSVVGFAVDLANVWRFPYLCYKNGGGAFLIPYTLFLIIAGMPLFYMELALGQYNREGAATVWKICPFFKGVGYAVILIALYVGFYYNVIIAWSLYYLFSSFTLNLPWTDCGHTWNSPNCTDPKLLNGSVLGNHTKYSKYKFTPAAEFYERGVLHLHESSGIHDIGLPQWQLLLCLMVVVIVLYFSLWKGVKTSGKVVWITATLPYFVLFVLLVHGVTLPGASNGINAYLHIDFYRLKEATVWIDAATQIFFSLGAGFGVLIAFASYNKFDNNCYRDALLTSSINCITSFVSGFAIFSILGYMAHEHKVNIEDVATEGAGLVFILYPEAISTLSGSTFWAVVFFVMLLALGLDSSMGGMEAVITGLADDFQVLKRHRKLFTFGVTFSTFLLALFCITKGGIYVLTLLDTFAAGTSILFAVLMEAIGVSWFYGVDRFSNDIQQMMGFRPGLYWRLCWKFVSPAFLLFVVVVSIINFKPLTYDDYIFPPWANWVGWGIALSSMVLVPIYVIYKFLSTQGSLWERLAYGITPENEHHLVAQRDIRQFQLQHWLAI
Text: as §1

D2 = D2 (Homo sapiens, UniProt P14416); test: PDSP secondary radioligand displacement assay, Ki; type: binding
Text: as §1

D3 = D3 (Homo sapiens, UniProt P35462); test: PDSP secondary radioligand displacement assay, Ki; type: binding
Text: as §1

DAT = DAT (Homo sapiens, UniProt Q01959); test: PDSP secondary radioligand displacement assay, Ki; type: binding
DAT, sequence (Q01959 whole entry, species assumed): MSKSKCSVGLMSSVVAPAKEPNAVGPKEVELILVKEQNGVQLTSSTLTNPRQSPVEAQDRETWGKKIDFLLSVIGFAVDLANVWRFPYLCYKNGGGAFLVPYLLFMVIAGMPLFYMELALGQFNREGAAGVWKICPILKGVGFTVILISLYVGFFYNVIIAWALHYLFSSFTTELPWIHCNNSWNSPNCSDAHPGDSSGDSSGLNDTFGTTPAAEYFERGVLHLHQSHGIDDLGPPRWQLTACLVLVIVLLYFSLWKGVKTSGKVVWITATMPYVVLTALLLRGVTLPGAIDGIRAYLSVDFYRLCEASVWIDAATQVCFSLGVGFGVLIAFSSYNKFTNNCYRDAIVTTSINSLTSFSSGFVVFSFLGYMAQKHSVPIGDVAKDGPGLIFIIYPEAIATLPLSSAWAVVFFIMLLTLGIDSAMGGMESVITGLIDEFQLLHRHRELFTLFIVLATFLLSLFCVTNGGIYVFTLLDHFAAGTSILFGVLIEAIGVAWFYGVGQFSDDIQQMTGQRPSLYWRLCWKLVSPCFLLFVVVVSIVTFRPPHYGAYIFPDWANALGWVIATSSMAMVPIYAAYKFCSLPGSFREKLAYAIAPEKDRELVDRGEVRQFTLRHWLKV
Text: as §1

Alpha1B = Alpha1B (Homo sapiens, UniProt P35368); test: PDSP secondary radioligand displacement assay, Ki; type: binding
Text: as §1

H4 = H4 (Homo sapiens, UniProt Q9H3N8); test: PDSP secondary radioligand displacement assay, Ki; type: binding; settings: supplement xlsx
Text: as §1

5-HT1D, sequence (P28221 whole entry, species assumed): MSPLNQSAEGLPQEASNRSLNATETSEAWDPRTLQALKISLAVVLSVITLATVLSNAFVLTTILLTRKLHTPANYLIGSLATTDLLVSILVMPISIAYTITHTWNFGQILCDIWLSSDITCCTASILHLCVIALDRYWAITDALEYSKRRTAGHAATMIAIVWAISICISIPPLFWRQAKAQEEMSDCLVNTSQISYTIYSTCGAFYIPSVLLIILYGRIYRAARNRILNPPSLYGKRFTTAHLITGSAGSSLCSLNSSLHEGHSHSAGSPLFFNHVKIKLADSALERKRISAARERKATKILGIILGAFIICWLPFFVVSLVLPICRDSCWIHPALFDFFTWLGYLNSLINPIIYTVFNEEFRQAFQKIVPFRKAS

Molecule	Ki (H3)	Ki (KOR)	Ki (SERT)	Ki (M2)	Ki (M3)	Ki (MOR)	Ki (Alpha2A)	Ki (Alpha2C)	other results
CC[C@H]1C[C@@H]2C[C@H]3c4[nH]c5cc(OC)ccc5c4CC[N@@](C2)[C@@H]13 [tabernanthine (3), tabernanthine, reference compound]	2300 nM	319 nM	1300 nM	–	–	–	–	–	Ki (5-HT1D): 7660 nM; Ki (S2R): 194 nM
c1ccc2c3c([nH]c2c1)C1CC2C[C@H](C4CCOCC4)C1N(CC3)C2 (stereo partly drawn) [7i]	–	–	1710 nM	150 nM	73.7 nM	1810 nM	–	–	Ki (H1): 882 nM; Ki (M1): 138 nM; Ki (M4): 37.9 nM; Ki (M5): 224 nM
CCC1CC2CC3c4[nH]c5cc(Cl)ccc5c4CCN(C2)C13 (stereo not drawn) [7b]	2880 nM	1400 nM	177 nM	2940 nM	811 nM	4450 nM	1720 nM	1360 nM	Ki (5-HT2A): 3000 nM; Ki (5-HT3): 1010 nM; Ki (Alpha2B): 2360 nM; Ki (NET): 1790 nM
ibogaine [ibogaine (2)]	–	–	–	–	–	–	–	–	Ki (S2R): 201 nM
CCC1CC2CC3c4c(c5ccccc5n4CC=C(C)C)CCN(C2)C13 (stereo not drawn) [compound 23]	–	–	–	–	–	6440 nM	–	–	Ki (D2): 2420 nM; Ki (D3): 249 nM; Ki (H1): 1710 nM
C[C@H]1CC2CC3c4[nH]c5ccccc5c4CCN(C2)C31 (stereo partly drawn) [7g]	–	–	371 nM	–	–	–	–	–	–
CC(C)[C@H]1CC2CC3c4[nH]c5ccccc5c4CCN(C2)C31 (stereo partly drawn) [7h]	–	995 nM	709 nM	–	414 nM	3130 nM	–	–	Ki (DAT): 2020 nM; Ki (M4): 416 nM; Ki (M5): 1100 nM
CCC1CC2CC3c4[nH]c5cc(Br)ccc5c4CCN(C2)C13 (stereo not drawn) [7c]	3320 nM	1040 nM	162 nM	8030 nM	1520 nM	4210 nM	1630 nM	71 nM	Ki (5-HT1D): 7460 nM; Ki (5-HT3): 1400 nM; Ki (Alpha2B): 1620 nM; Ki (DAT): 807 nM; Ki (NET): 1750 nM
CCC1CC2CC3c4[nH]c5cc(F)ccc5c4CCN(C2)C13 (stereo not drawn) [7a]	–	4770 nM	153 nM	2690 nM	734 nM	–	4100 nM	623 nM	Ki (Alpha1B): 2090 nM; Ki (DAT): 1320 nM; Ki (NET): 5700 nM
CCC1CC2CC3c4[nH]c5cc(C(F)(F)F)ccc5c4CCN(C2)C13 (stereo not drawn) [7e]	2290 nM	1500 nM	206 nM	–	1950 nM	3810 nM	1420 nM	110 nM	Ki (5-HT2A): 1800 nM; Ki (Alpha2B): 1650 nM; Ki (H4): 3030 nM; Ki (M1): 4570 nM
CCC1CC2CC3c4[nH]c5cc6c(cc5c4CCN(C2)C13)OCO6 (stereo not drawn) [7f]	5410 nM	–	–	–	–	–	–	–	Ki (5-HT1D): > 10000 nM
CCC1C[C@H]2CC3c4[nH]c5ccccc5c4CCN(C2=O)C13 (stereo in doubt) [compound 22]	–	–	1380 nM	–	–	–	–	–	–
CC[C@H]1C[C@H]2C[C@H]3c4[nH]c5ccccc5c4CCN(C2)[C@@H]13 [ibogamine (1), ibogamine, reference compound]	–	–	272 nM	–	2460 nM	2460 nM	–	–	Ki (S2R): 137 nM
